# From ChEMBL document CHEMBL1154179, “Analogs of a 4-aminothieno[2,3-d]pyrimidine lead (QB13) as modulators of P-glycoprotein substrate specificity” (Bioorg Med Chem Lett, 2009)
# pEC50: −log10 of the molar value.
# Biological target: T1, ATP-dependent translocase ABCB1 (Homo sapiens, UniProt P08183)
# Assay: Modulation of P-gp overexpressed in human A2780 cells assessed as vinblastin accumulation at 31.6 uM by MTT assay
# Assay type: cell-based
# Conditions: a2780, 31.6 µM; call rule not given here
# T1 sequence (P08183 whole entry): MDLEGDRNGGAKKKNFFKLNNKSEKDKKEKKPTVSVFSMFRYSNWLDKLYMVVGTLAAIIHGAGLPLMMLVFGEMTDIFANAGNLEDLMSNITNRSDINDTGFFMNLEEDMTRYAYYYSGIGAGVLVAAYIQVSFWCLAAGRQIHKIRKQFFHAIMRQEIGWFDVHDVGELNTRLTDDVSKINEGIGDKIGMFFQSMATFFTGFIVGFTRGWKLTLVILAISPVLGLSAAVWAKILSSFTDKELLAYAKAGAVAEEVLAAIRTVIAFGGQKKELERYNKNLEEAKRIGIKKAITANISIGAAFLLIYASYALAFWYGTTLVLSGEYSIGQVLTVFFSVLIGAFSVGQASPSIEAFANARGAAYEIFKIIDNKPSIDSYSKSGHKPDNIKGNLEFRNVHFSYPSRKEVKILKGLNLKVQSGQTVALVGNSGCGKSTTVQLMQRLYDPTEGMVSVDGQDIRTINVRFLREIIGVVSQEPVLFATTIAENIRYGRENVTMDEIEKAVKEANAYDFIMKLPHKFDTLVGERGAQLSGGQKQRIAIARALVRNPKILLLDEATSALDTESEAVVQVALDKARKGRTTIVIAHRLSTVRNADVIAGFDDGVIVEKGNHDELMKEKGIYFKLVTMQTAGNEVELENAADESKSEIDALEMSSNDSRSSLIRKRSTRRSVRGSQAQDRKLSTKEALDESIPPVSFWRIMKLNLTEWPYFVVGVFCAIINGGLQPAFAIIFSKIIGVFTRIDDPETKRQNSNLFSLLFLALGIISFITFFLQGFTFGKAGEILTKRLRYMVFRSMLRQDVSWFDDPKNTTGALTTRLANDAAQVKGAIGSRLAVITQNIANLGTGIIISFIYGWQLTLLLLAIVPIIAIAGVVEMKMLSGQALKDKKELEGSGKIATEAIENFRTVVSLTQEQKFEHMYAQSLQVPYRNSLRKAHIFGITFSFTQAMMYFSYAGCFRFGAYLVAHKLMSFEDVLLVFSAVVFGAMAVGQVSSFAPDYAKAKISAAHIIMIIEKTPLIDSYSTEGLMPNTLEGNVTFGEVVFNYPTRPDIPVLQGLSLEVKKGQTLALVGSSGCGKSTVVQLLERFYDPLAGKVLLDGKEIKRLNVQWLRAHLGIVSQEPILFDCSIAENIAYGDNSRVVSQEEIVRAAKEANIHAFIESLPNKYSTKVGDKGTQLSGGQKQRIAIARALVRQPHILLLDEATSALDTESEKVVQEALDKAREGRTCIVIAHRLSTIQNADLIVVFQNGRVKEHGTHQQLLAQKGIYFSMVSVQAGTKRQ
row,Activity,SMILES
1,Active,CCOC(=O)CSc1nc(N)c2c(C)c(C)sc2n1
2,Active,Nc1nc(SCCc2ccccc2)nc2sc3c(c12)CCCC3
3,Active,CCOC(=O)CSc1nc(N)c2c3c(sc2n1)CCCC3
4,Active,Cc1sc2nc(SCCc3ccccc3)nc(N)c2c1C

# Biological target: T1, ATP-dependent translocase ABCB1
# Assay: Modulation of P-gp overexpressed in human A2780 cells assessed as colchicine accumulation at 31.6 uM by MTT assay
# Assay type: cell-based
# Conditions: a2780, 31.6 µM
row,Activity,SMILES
1,Not Active,CCOC(=O)CSc1nc(N)c2c(C)c(C)sc2n1
2,Not Active,Nc1nc(SCCc2ccccc2)nc2sc3c(c12)CCCC3
3,Not Active,CCOC(=O)CSc1nc(N)c2c3c(sc2n1)CCCC3
4,Not Active,Cc1sc2nc(SCCc3ccccc3)nc(N)c2c1C

# Biological target: T1, ATP-dependent translocase ABCB1
# Assay: Modulation of P-gp overexpressed in human A2780 cells assessed as daunorubicin accumulation at 31.6 uM by MTT assay
# Assay type: cell-based
# Conditions: a2780, 31.6 µM
row,Activity,SMILES
1,Active,CCOC(=O)CSc1nc(N)c2c(C)c(C)sc2n1
2,Active,Nc1nc(SCCc2ccccc2)nc2sc3c(c12)CCCC3
3,Active,CCOC(=O)CSc1nc(N)c2c3c(sc2n1)CCCC3
4,Active,Cc1sc2nc(SCCc3ccccc3)nc(N)c2c1C

# Biological target: T1, ATP-dependent translocase ABCB1
# Assay: Modulation of P-gp overexpressed in human A2780 cells assessed as daunorubicin accumulation preincubated 15 mins prior to daunorubicin addition measured after 180 mins by fluorescence assay
# Assay type: cell-based
# Conditions: not given
row,pEC50,SMILES
1,6.25,Nc1nc(SCCc2ccccc2)nc2sc3c(c12)CCOC3
2,5.38,CCOC(=O)CSc1nc(N)c2c3c(sc2n1)CCC3
3,6.01,Nc1nc(SCCc2ccccc2)nc2sc3c(c12)CCC3
4,< 4.00,Nc1nc(SC(C(=O)O)c2ccccc2)nc2sc3c(c12)CCCC3 (centres undefined)
5,5.58,CSc1nc(N)c2c3c(sc2n1)CCCC3
6,5.96,Nc1nc(SCCc2ccccc2)nc2ccccc12
7,5.34,CCSc1nc(N)c2c(C)c(C)sc2n1
8,6.05,CCOC(=O)CSc1nc(N)c2c(C)c(C)sc2n1
9,5.88,Cc1sc2nc(SCC(=O)c3ccccc3)nc(N)c2c1C
10,5.72,Nc1nc(SCCO)nc2sc3c(c12)CCCC3
11,5.81,CCOC(=O)CSc1nc(N)c2c3c(sc2n1)COCC3
12,5.40,CCOC(=O)CSc1nc(N)c2ccccc2n1
13,6.19,CCOC(=O)CSc1nc(N)c2c3c(sc2n1)CN(Cc1ccccc1)CC3
14,5.82,COc1cc2nc(SCCc3ccccc3)nc(N)c2cc1OC
15,5.88,CSc1nc(N)c2c(C)c(C)sc2n1
16,6.19,Nc1nc(SCC(=O)c2ccccc2)nc2sc3c(c12)CCCC3
17,< 4.00,Cc1sc2nc(SC(C(=O)O)c3ccccc3)nc(N)c2c1C (centres undefined)
18,5.99,Nc1nc(SCCc2ccccc2)nc2sc3c(c12)CCCC3
19,5.92,CCOC(=O)CSc1nc(N)c2cc(OC)c(OC)cc2n1
20,6.34,CCSc1nc(N)c2c3c(sc2n1)CCCC3
21,5.65,CCOC(=O)CSc1nc(N)c2c3c(sc2n1)CCCC3
22,5.65,Cc1sc2nc(SCCc3ccccc3)nc(N)c2c1C
